According to ChEMBL document CHEMBL5055666, “Tyrosine-Derived Novel Benzoxazine Active in a Rat Syngenic Mammary Tumor Model of Breast Cancer” (J Med Chem, 2021):

Legend:
[1] = tested on: MCF7; assay: Antiproliferative activity against human MCF7 cells assessed as inhibition of cell growth incubated for 24 hrs by MTT assay; format: functional, cell-based; details: MCF7, 24 h
[2] = tested on: MDA-MB-231; assay: Antiproliferative activity against human MDA-MB-231 cells assessed as inhibition of cell growth incubated for 24 hrs by MTT assay; format: functional, cell-based; details: MDA-MB-231, 24 h
[3] = tested on: Rattus norvegicus; assay: Toxicity in Sprague-Dawley rat inoculated with rat LA7 cells assessed as increase in uterine tissue at 10 mg/kg administered daily for 21 days; format: organism-based; details: in vivo, 504 h, time 21 day

SMILES	IC50 [1]	IC50 [2]	Activity [3]
COc1ccc(C[C@H]2COc3ccccc3N2Cc2ccc(OCCN3CCCCC3)cc2)cc1	0.68 µM	11 µM	
COc1ccc(C[C@H]2COc3ccc(OC)cc3N2Cc2ccc(OCCN3CCCCC3)cc2)cc1	2.6 µM	2.64 µM	
COc1ccc(C[C@H]2CSc3ccccc3N2Cc2ccc(OCCN3CCCC3)cc2)cc1	30.8 µM	10.9 µM	
CN(C)CCOc1ccc(C[C@H]2COc3ccccc3N2C)cc1	> 50 µM	> 50 µM	
CC/C(=C(\c1ccccc1)c1ccc(OCCN(C)C)cc1)c1ccccc1 [TAMOXIFEN]	5.4 µM		Toxic
CN(C)CCOc1ccc(C[C@H]2COc3ccccc3N2Cc2ccccc2)cc1	20.5 µM	> 50 µM	
COc1ccc(C[C@H]2CSc3ccccc3N2Cc2ccc(OCCN(C(C)C)C(C)C)cc2)cc1	> 50 µM	> 50 µM	
CC(C)N(CCOc1ccc(C[C@H]2COc3ccccc3N2Cc2ccccc2)cc1)C(C)C	40.4 µM	> 50 µM	
COc1ccc(C[C@H]2COc3ccccc3N2C)cc1	> 50 µM	> 50 µM	
COc1ccc(C[C@H]2COc3ccccc3N2)cc1	> 50 µM	36.4 µM	
COc1ccc(C[C@H]2COc3ccccc3N2Cc2ccc(OCCN3CCOCC3)cc2)cc1	83.6 µM	31.3 µM	
COc1ccc(C[C@H]2COc3cc(F)c(F)cc3N2Cc2ccc(OCCN3CCCCC3)cc2)cc1	5.05 µM	4.86 µM	
COc1ccc(C[C@@H]2COc3ccccc3N2Cc2ccc(OCCN3CCCC3)cc2)cc1	7.03 µM	6.52 µM	
Oc1ccc(C[C@H]2COc3ccccc3N2Cc2ccccc2)cc1	41.6 µM	32.5 µM	
CCN(CC)CCOCCOc1ccc(CN2c3ccccc3OC[C@@H]2Cc2ccc(OC)cc2)cc1	39.1 µM	45 µM	
COc1ccc(C[C@@H]2COc3ccccc3N2Cc2ccc(OCCN3CCCCC3)cc2)cc1	6.3 µM	4.87 µM	
COc1ccc(C[C@H]2COc3cc(F)c(F)cc3N2Cc2ccc(OCCN3CCCC3)cc2)cc1	3.35 µM	3.22 µM	
COc1ccc(C[C@H]2COc3ccccc3N2Cc2ccc(OCCN(C)C)cc2)cc1	6.75 µM	11.1 µM	
COc1ccc(C[C@H]2COc3ccccc3N2Cc2ccc(OCCOCCN3CCCCC3)cc2)cc1	7.81 µM	> 50 µM	
COc1ccc(C[C@H]2COc3ccc(C(F)(F)F)cc3N2Cc2ccc(OCCN3CCCCC3)cc2)cc1	6.1 µM	6.36 µM	
CC(=O)O[C@H]1C(=O)[C@@]2(C)[C@H]([C@H](OC(=O)c3ccccc3)[C@]3(O)C[C@H](OC(=O)[C@H](O)[C@@H](NC(=O)c4ccccc4)c4ccccc4)C(C)=C1C3(C)C)[C@]1(OC(C)=O)CO[C@@H]1C[C@@H]2O [PACLITAXEL]		3.77 µM	
Oc1ccc(C[C@H]2COc3ccccc3N2Cc2ccc(O)cc2)cc1	24.4 µM	40.2 µM	
COc1ccc(C[C@H]2CSc3ccccc3N2Cc2ccc(OCCN(C)C)cc2)cc1	28.8 µM	25.5 µM	
CN1c2ccccc2OC[C@@H]1Cc1ccc(OCCN2CCCCC2)cc1	> 50 µM	> 50 µM	
COc1ccc(C[C@H]2COc3ccc(C(F)(F)F)cc3N2Cc2ccc(OCCN3CCCC3)cc2)cc1	6.86 µM	6.89 µM	
COc1ccc(C[C@H]2COc3ccccc3N2C(=O)c2ccc(N)cc2)cc1	> 50 µM	> 50 µM	
Oc1ccc(C[C@H]2COc3ccccc3N2)cc1	> 50 µM	47.4 µM	

Further lines, with some results ahead:

IC50 [1]	IC50 [2]	SMILES	Activity [3]
3.34 µM	3.23 µM	COc1ccc(C[C@H]2COc3ccc(F)cc3N2Cc2ccc(OCCN3CCCC3)cc2)cc1	
21.1 µM	> 50 µM	c1ccc(CN2c3ccccc3OC[C@@H]2Cc2ccc(OCCN3CCCC3)cc2)cc1	
5.5 µM	> 50 µM	COc1ccc(C[C@H]2COc3ccccc3N2Cc2ccc(OCCOCCN(C(C)C)C(C)C)cc2)cc1	
30.4 µM	43.6 µM	CCN1c2ccccc2OC[C@@H]1Cc1ccc(O)cc1	
22 µM	> 50 µM	c1ccc(CN2c3ccccc3OC[C@@H]2Cc2ccc(OCCN3CCCCC3)cc2)cc1	
31.7 µM	26.7 µM	CCN(CC)CCOc1ccc(CN2c3ccccc3SC[C@@H]2Cc2ccc(OC)cc2)cc1	
24.4 µM	40.2 µM	COc1ccc(C[C@H]2COc3ccccc3N2Cc2ccc(O)cc2)cc1	
77.6 µM	0.83 µM	COc1ccc(C[C@H]2COc3ccccc3N2Cc2ccc(OCCN(C(C)C)C(C)C)cc2)cc1	
3.61 µM	2.92 µM	COc1ccc(C[C@H]2COc3ccc(F)cc3N2Cc2ccc(OCCN3CCCCC3)cc2)cc1	
> 50 µM	> 50 µM	COc1ccc(C[C@H]2COc3ccccc3N2Cc2ccc(OS(=O)(=O)c3ccc(C)cc3)cc2)cc1	
43.7 µM	> 50 µM	COc1ccc(C[C@H]2COc3ccccc3N2Cc2ccc(OCCO)cc2)cc1	
3.34 µM	3.59 µM	COc1ccc(C[C@H]2COc3ccc(OC)cc3N2Cc2ccc(OCCN3CCCC3)cc2)cc1	
17.4 µM	12.2 µM	COc1ccc(C[C@H]2CSc3ccccc3N2Cc2ccc(OCCN3CCCCC3)cc2)cc1	
21.3 µM	> 50 µM	COc1ccc(C[C@H]2COc3ccccc3N2Cc2ccc(OCCOCCN3CCCC3)cc2)cc1	
> 50 µM	> 50 µM	CN1c2ccccc2OC[C@@H]1Cc1ccc(OCCN2CCCC2)cc1	
6.95 µM	0.97 µM	CCN(CC)CCOc1ccc(CN2c3ccccc3OC[C@@H]2Cc2ccc(OC)cc2)cc1	
18.1 µM	10.1 µM	COc1ccc(C[C@H]2COc3ccccc3N2Cc2ccc(OCCN3CCCCCC3)cc2)cc1	
45.8 µM	> 50 µM	CCN1c2ccccc2OC[C@@H]1Cc1ccc(OCCN2CCCC2)cc1	
> 50 µM	> 50 µM	COc1ccc(C[C@H]2COc3ccccc3N2Cc2ccccc2)cc1	
